Results on 4 compounds are retold here after ChEMBL document CHEMBL1201862, “PubChem BioAssay data set” (2004).

In experiment [1] the target is CAAX prenyl protease 1 (Saccharomyces cerevisiae S288c, UniProt P47154). Nature of the experiment: Ste24 protease inhibitors, dose response, biochemical, S. cerevisiae, plate reader, cherry-pick (AID 488815).
Experiment [2] addresses Lysine-specific demethylase 4A (Homo sapiens, UniProt O75164). Briefly: JMJD2A histone demethylase inhibitors, dose response, selectivity assay for GASC-1 inhibitor project, biochemical, DELFIA europium, cherry-picked samples (AID 488840).
For experiment [3], the target named is Lysine-specific demethylase 4C (Homo sapiens, UniProt Q9H3R0). Briefly: GASC-1 (JMJD2C) histone demethylase inhibitors, dose response, biochemical, DELFIA europium, cherry-picked samples (AID 488835). It counts as functional.
Experiment [4] can be described thus: AlphaScreen signal interference compounds, dose response, artefact control for ARNT-TACC3 interaction inhibitor project, biochemical, luminescence, cherry-pick (AID 651705).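 Further: AlphaScreen bead proximity signal that flags compounds interfering with the detection technology; potency reflects signal decrease which marks the compound as an assay artifact.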 The class given is functional.
The target of experiment [5] is T1, Intestinal-type alkaline phosphatase (Homo sapiens, UniProt P09923). Briefly: human IAP inhibitors, dose response, biochemical, luminescent, uHTS hits, set 2 (AID 488793). The class given is functional.
Experiment [6] concerns the target T1, Intestinal-type alkaline phosphatase. Nature of the experiment: Dose Response confirmation of uHTS hits from a small molecule inhibitors of human intestinal alkaline phosphatase via a luminescent assay. [Related pubchem assays (depositor defined):AID2544, AID2574]. The class given is functional.
The target in experiment [7] is Intestinal-type alkaline phosphatase (Mus musculus, UniProt P24822). Nature of the experiment: PubChem AID 488875. It counts as functional.
Experiment [8] addresses T2, Alkaline phosphatase, tissue-nonspecific isozyme (Homo sapiens, UniProt P05186).
T2 sequence (P05186 whole entry): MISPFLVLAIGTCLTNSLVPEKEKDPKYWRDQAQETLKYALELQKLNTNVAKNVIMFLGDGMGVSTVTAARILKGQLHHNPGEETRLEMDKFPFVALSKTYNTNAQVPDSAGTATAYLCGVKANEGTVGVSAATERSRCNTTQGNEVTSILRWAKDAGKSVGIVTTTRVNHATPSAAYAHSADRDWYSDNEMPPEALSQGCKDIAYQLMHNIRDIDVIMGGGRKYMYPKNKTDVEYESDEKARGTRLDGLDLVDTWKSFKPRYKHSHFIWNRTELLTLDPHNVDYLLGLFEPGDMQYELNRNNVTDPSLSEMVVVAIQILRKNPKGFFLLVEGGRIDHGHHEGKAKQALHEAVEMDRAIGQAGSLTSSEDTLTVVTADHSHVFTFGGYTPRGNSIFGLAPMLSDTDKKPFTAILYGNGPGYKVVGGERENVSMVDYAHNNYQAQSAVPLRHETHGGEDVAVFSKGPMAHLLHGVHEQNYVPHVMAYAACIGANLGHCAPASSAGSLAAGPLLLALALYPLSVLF
Briefly: inhibition of tissue-nonspecific alkaline phosphatase – biochemical, dose response (AID 488882). The class given is functional.

The target of experiment [9] is Exodeoxyribonuclease V (Escherichia coli (strain K12), UniProt P04993+P07648+P08394). Briefly: E. coli RecBCD inhibitors, dose response, counter-screen for AddAB inhibitor project, absorbance, V66 E. coli, mutant T4 phage (AID 492957). It counts as functional, cell-based, Escherichia coli str. K-12 substr. MG1655.
Experiment [10] deals with T3, Bcl-2-related protein A1 (Mus musculus, UniProt Q07440).
T3 sequence (Q07440 whole entry): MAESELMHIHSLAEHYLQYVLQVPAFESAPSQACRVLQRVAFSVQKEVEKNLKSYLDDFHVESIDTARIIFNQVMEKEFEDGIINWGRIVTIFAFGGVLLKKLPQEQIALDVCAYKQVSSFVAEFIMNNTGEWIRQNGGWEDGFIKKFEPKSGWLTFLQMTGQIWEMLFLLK
The class given is functional.

In experiment [11] the target is T4, Ubiquitin-conjugating enzyme E2 N (Homo sapiens, UniProt P61088).
T4 sequence (P61088 whole entry): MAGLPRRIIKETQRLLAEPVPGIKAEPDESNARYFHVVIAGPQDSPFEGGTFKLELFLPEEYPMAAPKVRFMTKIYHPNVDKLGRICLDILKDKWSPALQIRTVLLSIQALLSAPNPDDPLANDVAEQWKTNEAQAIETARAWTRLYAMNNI
The class given is functional.

The target in experiment [12] is T4, Ubiquitin-conjugating enzyme E2 N. It counts as functional. The source holds these as a separate data set.
Experiment [13] in a line: Counterscreen for AddAB inhibitors: absorbance-based bacterial cell-based high throughput dose response assay for inhibitors of bacterial viability. [Related pubchem assays (depositor defined):AID435030, AID449728, AID449731, AID488942, AID488955, AID488956]. The class given is functional.
The subject of experiment [14] is INS1. Briefly: beta cell apoptosis inhibitors, cytokine rescue, dose response, luminescence, retest (AID 449756).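 Further: cell death triggered by IL-1 beta plus TNF-alpha plus IFN-gamma mixture; protective hits raise ATP signal compared with cytokine alone wells.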 The class given is functional, cell-based. To be noted: Rattus norvegicus.

Active and inactive are the calls of the source.

T1 sequence (P09923 whole entry): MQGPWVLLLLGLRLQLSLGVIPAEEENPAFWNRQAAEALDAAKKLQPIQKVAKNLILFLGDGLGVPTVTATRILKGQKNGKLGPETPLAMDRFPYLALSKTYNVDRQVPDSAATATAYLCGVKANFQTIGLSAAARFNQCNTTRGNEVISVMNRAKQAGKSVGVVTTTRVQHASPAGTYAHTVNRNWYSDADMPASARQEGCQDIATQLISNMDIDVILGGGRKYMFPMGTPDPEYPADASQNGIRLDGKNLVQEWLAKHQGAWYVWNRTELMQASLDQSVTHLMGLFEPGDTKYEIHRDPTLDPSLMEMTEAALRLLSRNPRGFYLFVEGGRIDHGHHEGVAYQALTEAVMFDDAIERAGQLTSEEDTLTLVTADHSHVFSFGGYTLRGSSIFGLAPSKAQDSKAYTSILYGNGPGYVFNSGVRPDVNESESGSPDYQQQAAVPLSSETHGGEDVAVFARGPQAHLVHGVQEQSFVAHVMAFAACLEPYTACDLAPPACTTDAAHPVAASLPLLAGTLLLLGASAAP
Exodeoxyribonuclease V, sequence (P04993 whole entry): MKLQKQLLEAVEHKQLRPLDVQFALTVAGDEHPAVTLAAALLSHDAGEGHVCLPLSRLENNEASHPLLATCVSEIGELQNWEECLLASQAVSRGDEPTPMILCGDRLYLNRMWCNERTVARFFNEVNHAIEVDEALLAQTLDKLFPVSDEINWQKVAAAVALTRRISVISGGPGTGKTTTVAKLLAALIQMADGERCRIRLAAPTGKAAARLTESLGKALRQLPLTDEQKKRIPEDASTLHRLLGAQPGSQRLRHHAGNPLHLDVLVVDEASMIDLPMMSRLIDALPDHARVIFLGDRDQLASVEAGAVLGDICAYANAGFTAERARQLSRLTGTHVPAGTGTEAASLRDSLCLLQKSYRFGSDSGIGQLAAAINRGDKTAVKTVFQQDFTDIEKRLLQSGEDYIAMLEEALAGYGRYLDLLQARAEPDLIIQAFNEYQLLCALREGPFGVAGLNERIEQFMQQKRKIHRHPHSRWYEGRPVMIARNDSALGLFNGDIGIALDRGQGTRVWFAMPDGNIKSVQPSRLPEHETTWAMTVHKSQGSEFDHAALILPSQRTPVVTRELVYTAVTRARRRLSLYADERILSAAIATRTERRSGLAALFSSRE
Exodeoxyribonuclease V, sequence (P07648 whole entry): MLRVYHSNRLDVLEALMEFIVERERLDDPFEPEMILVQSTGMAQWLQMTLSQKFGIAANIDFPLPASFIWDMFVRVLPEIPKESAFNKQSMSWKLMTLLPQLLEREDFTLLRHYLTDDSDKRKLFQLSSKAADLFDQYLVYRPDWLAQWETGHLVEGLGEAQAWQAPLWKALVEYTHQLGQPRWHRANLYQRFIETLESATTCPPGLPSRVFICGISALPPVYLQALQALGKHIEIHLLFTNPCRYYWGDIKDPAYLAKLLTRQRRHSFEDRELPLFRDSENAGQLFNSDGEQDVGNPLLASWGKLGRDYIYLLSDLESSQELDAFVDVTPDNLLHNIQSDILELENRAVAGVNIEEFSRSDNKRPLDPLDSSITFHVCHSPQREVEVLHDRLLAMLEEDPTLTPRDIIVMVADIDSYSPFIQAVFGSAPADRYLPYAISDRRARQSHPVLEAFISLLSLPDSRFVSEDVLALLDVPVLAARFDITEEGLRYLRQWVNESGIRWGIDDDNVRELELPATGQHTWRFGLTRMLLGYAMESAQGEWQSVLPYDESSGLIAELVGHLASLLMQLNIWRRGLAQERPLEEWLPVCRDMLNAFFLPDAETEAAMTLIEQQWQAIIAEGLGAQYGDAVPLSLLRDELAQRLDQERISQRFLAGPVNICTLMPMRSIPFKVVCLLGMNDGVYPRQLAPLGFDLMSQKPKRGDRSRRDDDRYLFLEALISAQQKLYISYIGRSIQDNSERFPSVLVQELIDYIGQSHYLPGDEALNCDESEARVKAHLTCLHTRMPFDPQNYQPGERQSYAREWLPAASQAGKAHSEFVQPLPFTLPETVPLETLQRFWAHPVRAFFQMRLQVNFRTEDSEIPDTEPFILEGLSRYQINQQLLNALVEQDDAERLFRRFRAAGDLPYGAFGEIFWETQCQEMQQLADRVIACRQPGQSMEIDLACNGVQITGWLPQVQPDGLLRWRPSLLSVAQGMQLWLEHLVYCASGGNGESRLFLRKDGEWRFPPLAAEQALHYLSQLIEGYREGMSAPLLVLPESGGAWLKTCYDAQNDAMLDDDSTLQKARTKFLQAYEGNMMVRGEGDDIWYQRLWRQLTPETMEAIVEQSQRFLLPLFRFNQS
Exodeoxyribonuclease V, sequence (P08394 whole entry): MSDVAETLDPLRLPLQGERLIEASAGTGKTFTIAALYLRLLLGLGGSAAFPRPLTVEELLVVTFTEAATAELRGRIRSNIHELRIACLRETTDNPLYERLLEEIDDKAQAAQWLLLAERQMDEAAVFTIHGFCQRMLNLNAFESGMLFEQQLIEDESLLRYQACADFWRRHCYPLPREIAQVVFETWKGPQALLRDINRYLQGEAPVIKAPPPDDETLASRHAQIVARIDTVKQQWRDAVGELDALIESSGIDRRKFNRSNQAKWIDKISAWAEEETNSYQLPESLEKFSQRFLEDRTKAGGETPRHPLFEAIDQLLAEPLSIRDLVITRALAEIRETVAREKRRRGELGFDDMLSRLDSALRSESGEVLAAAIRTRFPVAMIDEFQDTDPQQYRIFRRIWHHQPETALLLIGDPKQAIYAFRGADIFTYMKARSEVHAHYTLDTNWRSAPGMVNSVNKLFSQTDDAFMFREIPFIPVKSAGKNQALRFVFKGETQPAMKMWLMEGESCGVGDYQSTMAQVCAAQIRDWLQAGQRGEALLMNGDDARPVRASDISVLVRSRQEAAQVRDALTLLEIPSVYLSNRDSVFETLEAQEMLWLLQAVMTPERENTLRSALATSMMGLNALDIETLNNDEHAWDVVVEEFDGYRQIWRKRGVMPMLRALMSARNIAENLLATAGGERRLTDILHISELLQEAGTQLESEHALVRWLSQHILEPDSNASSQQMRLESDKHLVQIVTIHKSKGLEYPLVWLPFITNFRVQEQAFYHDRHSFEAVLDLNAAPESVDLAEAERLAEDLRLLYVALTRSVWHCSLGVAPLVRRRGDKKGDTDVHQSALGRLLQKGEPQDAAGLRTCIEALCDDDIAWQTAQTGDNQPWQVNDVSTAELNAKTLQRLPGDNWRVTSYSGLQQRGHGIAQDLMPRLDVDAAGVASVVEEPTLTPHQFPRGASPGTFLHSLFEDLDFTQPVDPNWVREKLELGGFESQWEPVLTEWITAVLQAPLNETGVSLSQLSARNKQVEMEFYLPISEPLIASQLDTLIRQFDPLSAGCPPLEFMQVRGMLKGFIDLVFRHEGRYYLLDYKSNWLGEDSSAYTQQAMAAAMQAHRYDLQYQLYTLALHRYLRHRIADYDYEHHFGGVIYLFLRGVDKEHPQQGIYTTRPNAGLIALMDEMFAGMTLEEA
CAAX prenyl protease 1, sequence (P47154 whole entry): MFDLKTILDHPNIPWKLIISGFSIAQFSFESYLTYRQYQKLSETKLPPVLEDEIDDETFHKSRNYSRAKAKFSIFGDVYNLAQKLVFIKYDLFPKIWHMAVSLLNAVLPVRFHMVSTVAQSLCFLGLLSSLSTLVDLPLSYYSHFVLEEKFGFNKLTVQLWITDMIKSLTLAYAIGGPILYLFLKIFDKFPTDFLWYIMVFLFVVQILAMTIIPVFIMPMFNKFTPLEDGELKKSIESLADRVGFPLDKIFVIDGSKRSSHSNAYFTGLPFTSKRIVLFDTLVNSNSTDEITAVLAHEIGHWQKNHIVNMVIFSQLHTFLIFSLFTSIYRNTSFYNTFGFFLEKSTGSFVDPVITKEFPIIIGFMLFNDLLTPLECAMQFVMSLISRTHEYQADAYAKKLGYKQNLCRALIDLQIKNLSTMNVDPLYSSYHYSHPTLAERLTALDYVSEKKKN
Lysine-specific demethylase 4A, sequence (O75164 whole entry): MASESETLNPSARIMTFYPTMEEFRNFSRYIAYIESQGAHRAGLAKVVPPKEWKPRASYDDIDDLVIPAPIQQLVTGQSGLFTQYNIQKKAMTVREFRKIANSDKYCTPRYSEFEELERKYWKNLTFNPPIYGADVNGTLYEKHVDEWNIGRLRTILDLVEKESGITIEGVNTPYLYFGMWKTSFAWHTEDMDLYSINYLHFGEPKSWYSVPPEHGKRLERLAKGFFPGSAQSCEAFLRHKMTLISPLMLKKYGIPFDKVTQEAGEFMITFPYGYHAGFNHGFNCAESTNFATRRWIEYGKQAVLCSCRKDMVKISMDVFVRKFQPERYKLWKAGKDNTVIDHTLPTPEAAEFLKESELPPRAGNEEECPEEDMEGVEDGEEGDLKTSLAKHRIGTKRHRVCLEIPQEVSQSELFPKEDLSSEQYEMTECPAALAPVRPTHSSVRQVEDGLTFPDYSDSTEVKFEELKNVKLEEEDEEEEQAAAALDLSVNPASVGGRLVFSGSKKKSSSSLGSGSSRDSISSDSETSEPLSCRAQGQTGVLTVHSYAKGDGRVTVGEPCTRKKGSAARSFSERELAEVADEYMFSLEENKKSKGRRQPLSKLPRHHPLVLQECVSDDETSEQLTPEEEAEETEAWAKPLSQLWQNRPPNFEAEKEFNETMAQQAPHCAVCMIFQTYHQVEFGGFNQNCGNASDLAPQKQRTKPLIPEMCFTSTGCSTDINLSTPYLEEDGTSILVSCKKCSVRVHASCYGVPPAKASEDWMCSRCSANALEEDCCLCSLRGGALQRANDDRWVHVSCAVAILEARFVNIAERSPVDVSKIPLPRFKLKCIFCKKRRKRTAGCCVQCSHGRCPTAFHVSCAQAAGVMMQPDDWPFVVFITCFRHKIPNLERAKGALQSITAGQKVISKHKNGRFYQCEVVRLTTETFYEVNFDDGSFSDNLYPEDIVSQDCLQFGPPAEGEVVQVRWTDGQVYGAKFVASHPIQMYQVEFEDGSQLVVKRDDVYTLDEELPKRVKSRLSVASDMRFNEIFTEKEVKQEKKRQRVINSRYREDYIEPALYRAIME

Turning to `CCOC(=O)c1cc(C)nc(O)c1C#N`, in [1], the AC50 is 12.3 µM (active).

`O=C(Nc1nnc(-c2ccco2)o1)c1ccc(N2C(=O)CCC2=O)cc1`: the AC50 is 13.9 µM (active) in experiment [2], 14.7 µM (active) in [3] and 126 µM (active) in experiment [4].

On to `O=C(O)c1ccccc1C(=O)Nc1cc(-c2ccccc2)n[nH]1`, for which the IC50 in [5] was 58.5 µM (active); in experiment [6], 10.5 µM (inactive); in [8], 32.7 µM (active). Also, the EC50 in experiment [7] was > 100 µM (inactive).

Consider `CCC[C@@H](CN1CCC[C@H]1CN1C(N)=NC[C@@H]1Cc1ccccc1)N1C[C@@H]([C@H](C)CC)N(CCCC2CCCC2)C1=N`, for which the IC50 in experiment [9] was 15.2 µM (inactive); in [10], > 20 µM (inactive); in experiment [11], 10.9 µM (active); in experiment [12], 8.52 µM (active); in experiment [13], 17.5 µM (inactive). Further, in experiment [14], the AC50 was 7.33 µM (active).
